In patent US20040116352A1, “Active substance combination containing a compound with an opioid effect and at least one further compound of formula 1” (priority 2000, published 2004):

Tested on: rats
Experiment: Tail-flick (focal-ray) test on rats
Assay type: in vivo, rat
Conditions: female Sprague Dawley rats, intravenous, 1.46 mg/kg morphine only, measured 10, 20, 40 and 60 min after application, FIGS. 1 and 2
From the text: The analgesic effect of the inventive active substance combinations and the comparative solutions was investigated in the focal-ray (tail-flick) test on rats according to D'Amour and Smith, J. Pharm. Exp. Ther. Vol. 72, pages 74-79, 1941. For this, female Sprague Dawley rats (Janvier, France) weighing between 120 and 150 g were used.
The rats were each placed in a test cage and the base of the tail exposed to the focused radiant heat from an electric lamp (tail-flick type 50/08/1.bc, Labtec, Dr. Hess). The lamp intensity was set so that the time from when the lamp was switched on until the tail was suddenly jerked away (pain latency) was 3 to 5 seconds in untreated rats. Before the application of the inventive active substance combinations and the comparative solutions, the rats were pre-tested twice within five minutes and the mean value of these measurements calculated as the pre-test mean value. The solutions of the inventive active substance combinations and the comparative solutions were then applied intravenously. The pain measurements were performed at 10, 20, 40 and 60 minutes respectively after the intravenous application. The analgesic effect was determined as an increase in the pain latency (% of the maximum possible antinociceptive effect) according to the following formula: […]

## CN1CC[C@]23c4c5ccc(O)c4O[C@H]2[C@@H](O)C=C[C@H]3[C@H]1C5 [Comparative Example 1, morphine]
  analgesic effect (increase in pain latency, % of the maximum possible antinociceptive effect): good analgesic effect
